Laboratory results published in US8956622B2, “Peptidic antagonists of class III semaphorins/neuropilins complexes” (INSERM—Institut National de la Sante et de la Recherche …, priority 2005, dated 2015).

Columns and labels:
NRP1 = target: T1, NRP1 (Rattus norvegicus, UniProt Q9QWJ9); assay: AP-Sema3A binding to its receptor NRP1 on C6 glioma cells (luminescence)
T1 construct: Rat C6 glioma cells, which express semaphorin receptors; endogenous in cells; host or cells: rat C6 glioma cells
Protocol: In order to investigate the NRP1 transmembrane domain role in the linkage NRP1-class III semaphorins, the binding of the ligand Sema3A to its receptor NRP1 on glioma cells was measured in the presence or not of the transmembrane domain peptide of NRP1 (pTM-NRP1 peptide; SEQ ID NO. 1) or of a mutated peptide (mpTM-NRP1; SEQ ID NO. 20, […]). These pTM-NRP1 Peptides have been synthesized by automatic peptidic synthesis (Fmoc chemistry, APPLIED SYSTEM), and analyzed by mass spectrometry. Peptides purity has been estimated by RP-HPLC (BECKMAN) as higher than 90%.
Rat C6 glioma cells, which express semaphorin receptors, has been used to determine the binding capacity of AP-Sema3A, a secreted alkaline phosphatase version of Sema 3A (ADAMS et al., 1997, BAGNARD et al., 1998). These cells were grown and plated in MEM medium (GIBCO) with 10% foetal calf serum (PERBIO), glutamine 0.5 mM (GIBCO) and antibiotics: 100 U/ml penicillin and 100 μg/ml streptomycin (SIGMA).
C6 Cells were cultured in 96-well plates and incubated with or without freshly diluted pTM-NRP1 or pTM-NRP1^mut peptides (10^−12 M to 10^−10 M) for 1 hour at 37° C. The culture medium has been then replaced by conditioned medium of HEK cells stably transfected with a construction expressing AP-Sema 3A (ADAMS et al., EMBO J., vol. 16(20), p: 6077-86, 1997; BAGNARD et al., 1998). Conditioned medium from HEK non transfected cells has been used as an internal control. The pTM-NRP1 Peptide has been synthesized by automatic peptidic synthesis (Fmoc chemistry, APPLIED SYSTEM), and analyzed by mass spectrometry. Peptides purity has been estimated by RP-HPLC (BECKMAN) as higher than 90%, the cells have been washed with PBS and incubated with 50 μl of alkaline phosphatase luminescent substrate (AMERSHAM). The luminescence has been read after 15 minutes with MICROLUMAT PLUS system (BERTHOLD TECHNOLOGIES) according to the manufacturer's instructions. Experiments were done 4 times for each peptide.

C6 glioma = C6 glioma cells pre-incubated with peptide and injected into the striatum, tumour development at 8 days; type: in vivo, rats
Protocol: The rat C6 glioma cell line, which is a good model of human glioma (DAI and HOLLAND, Biochim. Biophys. Acta, vol. 1551, p: M19-27, 2001), has been used to investigate how the blockade of NRP1 by using our peptidic strategy (pTM-NRP1) may interfere with cell migration and dissemination.
C6 cells (ATCC CCL-107) were stained using PKH26 (Sigma). Cells were incubated with peptides (pTM-NRP1 10^−8M or mutated pTM-NRP1 10^−8M) prior to injections for at least 2 h on ice in culture medium (composed of MEM with 5000 u/ml penicillin, 5 mg/ml streptomycin, 200 mM L-glutamine and 10% fetal calf serum). Injections of 10^6 cells were performed using a stereotaxic frame according to the following coordinates: antero-posterior, +1.6 mm relative to Bregma; L, +2 mm; H, +5 mm relative to the cortical surface.
All injections were performed in the left striatum.
Following a survival period of 8 days, the animals (3 groups of 4 rats) were killed by a lethal intra-peritoneal injection of pentobarbital before trans-cardiac perfusion with a pre-rinse of 100 ml PBS followed by 500 ml of 2% formaldehyde. The brains were post-fixed during 2 hours at 4° C. and sagittal sections (70 μm) were prepared on a vibratome.
One group of sections were mounted in PBS-glycerol (v/v) for microscopic observation, and another one was treated for immunostaining of CD34. […]

PC12 cells = assay: PC12 cell differentiation / neuritic outgrowth assay; type: cell-based; details: peptide 10^−9 M
Protocol: To further investigate the biochemical consequence of the TM-NRP1 in terms of receptor complex formation, we analyzed the formation of complexes in the PC12 neuronal cells model.
PC12 (ATCC: CRL-1721) were grown in D-MEM medium with 4.5 g of glucose/L (GIBCO), 5% FVS, 10% horse serum, glutamine 580 mg/L and antibiotics. For functional assays, PC12 were cultured on 12-wells plates with previously poly-L-lysine-coated glass coverslips. PC12 cells were incubated 1 h with or without pTM-NRP1 peptide (10^−9M) at 37° C. Culture medium was removed and replaced by NGF-containing (100 ng/mL; GIBCO) serum free medium or by conditioned medium obtained from HEK293 cells stably expressing Sema3A or non-transfected cells (control, see BAGNARD et al., 1998 for details) for 12 h at 37° C.
Cells were fixed with 2% formaldehyde for 30 mn followed by 15 mn in 4% formaldehyde. For each condition tested, around 400 cells were analyzed to evaluate neuritic outgrowth (Statistical analyses were made by using χ^2 test).

Sequence: ILITIIAMSALGVLLGAVCGVVL [pTM-NRP1]
- decrease of binding of AP-Sema3A to NRP1 compared to the absence of peptide (NRP1; C6 cells, peptide 10^−10 M): about 50%
- binding of AP-Sema3A to its receptor NRP1 on C6 cells (NRP1; peptide 10^−12 M to 10^−10 M, 1 hour): blocked in a dose dependent manner
- tumour size (C6 glioma; C6 cells treated with peptide 10^−8 M prior to injection in the left striatum, 8 days, n=4): strong reduction
- immunoreactivity for CD34, a marker of neoangiogenesis (C6 glioma; C6 cells treated with peptide 10^−8 M prior to injection, brain sections at 8 days): strong reduction
- NGF effect on PC12 cell differentiation (PC12 cells; NGF 100 ng/mL 12 h): preserved
- Sema3A induced neurite growth promotion (PC12 cells; Sema3A conditioned medium 12 h): significantly reduced
